Structures are written as SMILES. Bounds are passed on as bounds.

In the assay the target is T1, hFXR (Homo sapiens, UniProt Q96RI1).
T1 construct: expressed in transfected cells; host or cells: CV-1 cells
T1 sequence (Q96RI1 1-486): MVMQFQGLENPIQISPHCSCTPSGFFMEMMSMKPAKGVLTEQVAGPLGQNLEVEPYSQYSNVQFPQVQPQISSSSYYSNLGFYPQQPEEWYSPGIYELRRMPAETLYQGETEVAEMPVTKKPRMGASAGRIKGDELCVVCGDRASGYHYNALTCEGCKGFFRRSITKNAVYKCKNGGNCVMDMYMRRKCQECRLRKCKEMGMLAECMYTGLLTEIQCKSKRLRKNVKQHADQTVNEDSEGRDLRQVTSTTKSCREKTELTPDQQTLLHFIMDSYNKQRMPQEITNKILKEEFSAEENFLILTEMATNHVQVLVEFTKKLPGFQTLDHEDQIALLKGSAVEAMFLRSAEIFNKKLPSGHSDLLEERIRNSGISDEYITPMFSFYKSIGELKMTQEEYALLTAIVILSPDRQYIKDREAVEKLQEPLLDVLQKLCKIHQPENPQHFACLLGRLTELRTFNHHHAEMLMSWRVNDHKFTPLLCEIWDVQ
T1 sequence (P19793 1-462 partner): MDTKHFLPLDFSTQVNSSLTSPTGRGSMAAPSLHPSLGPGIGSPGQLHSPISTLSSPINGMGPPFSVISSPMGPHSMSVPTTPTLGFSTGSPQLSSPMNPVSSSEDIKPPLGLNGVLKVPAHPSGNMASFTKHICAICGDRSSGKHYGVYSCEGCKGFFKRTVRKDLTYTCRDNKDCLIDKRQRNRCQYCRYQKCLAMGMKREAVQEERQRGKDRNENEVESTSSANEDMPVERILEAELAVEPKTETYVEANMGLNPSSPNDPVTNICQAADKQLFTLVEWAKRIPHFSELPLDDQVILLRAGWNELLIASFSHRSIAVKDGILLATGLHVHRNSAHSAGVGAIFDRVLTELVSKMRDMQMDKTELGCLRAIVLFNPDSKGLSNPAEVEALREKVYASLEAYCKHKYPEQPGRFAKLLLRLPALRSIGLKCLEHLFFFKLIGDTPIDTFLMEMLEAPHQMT
In words: In Vitro FXR Assay (TK): TK-ECRE-luc reporter in transfected CV-1 cells. The assay is classed as cell-based. The note with it: 18 hrs incubation, luminescence. In a few lines:
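Luciferase read-out from lysed CV-1 cells carrying transfected hFXR, hRXR, TK-ECRE-luc and pCMX-YFP. Test compounds, DMSO serial dilutions, were incubated with the cells for 18 h before lysis. Cells grew in charcoal-stripped serum medium.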
As usually defined, the EC50 is the concentration that produces a half-maximal response. Read a high EC50 as lower potency in that assay. On to `COc1ccc(C23CCC(CN(c4cc(-c5coc(C(C)C)n5)ccn4)C(=O)[C@H]4CC[C@H](OC(=O)NC5COC5)CC4)(CC2)CC3)cc1C` [Compound 23.04, 4-((4-(2-Isopropyloxazol-4-yl)pyridin-2-yl)((4-(4-methoxy-3-methylphenyl)bicyclo[2.2.2]octan-1-yl)methyl)carbamoyl)(trans-cyclohexyl)oxetan-3-ylcarbamate], for which the EC50 is no more than 50 nM.
In the case of `COc1ccc(C23CCC(CN(c4cc(-c5coc(C(C)C)n5)ccn4)C(=O)[C@H]4CC[C@H](OC(=O)N5CC(OCCO)C5)CC4)(CC2)CC3)cc1C` [Compound 23.05, 4-((4-(2-Isopropyloxazol-4-yl)2-yl)((4-(4-methoxy-3-methylphenyl)bicyclo[2.2.2]octan-1-yl)methyl)carbamoyl)(trans-cyclohexyl) 3-(2-hydroxyethoxy)azetidine-1-carboxylatepyridin-], the half-maximal effective concentration (EC50) was no more than 50 nM.
Next, `COc1ccc(C23CCC(CN(c4cc(-c5coc(C(C)C)n5)ccn4)C(=O)[C@H]4CC[C@H](OC(=O)NCCC(C)(C)O)CC4)(CC2)CC3)cc1C` [Compound 23.06, 4-((4-(2-Isopropyloxazol-4-yl)pyridin-2-yl)((4-(4-methoxy-3-methylphenyl)bicyclo[2.2.2]octan-1-yl)methyl)carbamoyl)(trans-cyclohexyl)(3-hydroxy-3-methylbutyl)carbamate]: no more than 50 nM; `COc1ccc(C23CCC(CN(c4cc(-c5cnn(C6CCCC6)c5)ccn4)C(=O)[C@H]4CC[C@H](OC(=O)N5CC(O)C5)CC4)(CC2)CC3)cc1C` [Compound 23.07, 4-((4-(1-Cyclopentyl-1H-pyrazol-4-yl)pyridin-2-yl)((4-(4-methoxy-3-methylphenyl)bicyclo[2.2.2]oc-tan-1-yl)methyl)carbamoyl)(trans-cyclohexyl) 3-hydroxy-azetidine-1-carboxylate]: no more than 50 nM.
Next, `COc1ccc(C23CCC(CN(c4cc(-c5cnn(C6CCC6)c5)ccn4)C(=O)[C@H]4CC[C@H](OC(=O)N5CC(O)C5)CC4)(CC2)CC3)cc1C` [Compound 23.08, 4-((4-(1-Cyclobutyl-1H-pyrazol-4-yl)pyridin-2-yl)((4-(4-methoxy-3-methylphenyl)bicyclo[2.2.2]octan-1-yl)methyl)carbamoyl)(trans-cyclohexyl) 3-hydroxyazetidine-1-carboxylate]: no more than 50 nM.
Under `COc1ccc(C23CCC(CN(c4cc(-c5cnn(C6CCCC6)c5)ccn4)C(=O)[C@H]4CC[C@H](OC(=O)N5CC(CO)C5)CC4)(CC2)CC3)cc1C` [Compound 23.09, 4-((4-(1-Cyclopentyl-1H-pyrazol-4-yl)pyridin-2-yl)((4-(4-methoxy-3-methylphenyl)bicyclo[2.2.2]octan-1-yl)methyl)carba-moyl)(trans-cyclohexyl) 3-(hydroxymethyl)azetidine-1-carboxylate] stands no more than 50 nM.
In turn, `COc1ccc(C23CCC(CN(c4cc(-c5cnn(C6CCC6)c5)ccn4)C(=O)[C@H]4CC[C@H](OC(=O)N5CC(CO)C5)CC4)(CC2)CC3)cc1C` [Compound 23.10, 4-((4-(1-Cyclobutyl-1H-pyrazol-4-yl)pyridin-2-yl)((4-(4-methoxy-3-methylphenyl)bicyclo[2.2.2]octan-1-yl)methyl)carbamoyl)(trans-cyclohexyl) 3-(hydroxymethyl)azetidine-1-carboxylate] yielded a concentration giving a half-maximal response (EC50) of no more than 50 nM.
Under `COc1ccc(C23CCC(CN(c4cc(-c5cnn(C(C)C)c5)ccn4)C(=O)[C@H]4CC[C@H](OC(=O)N5CC(OC(C)C)C5)CC4)(CC2)CC3)cc1C` [Compound 23.11, 4-((4-(1-Isopropyl-1H-pyrazol-4-yl)pyridin-2-yl)((4-(4-methoxy-3-methylphenyl)bicyclo[2.2.2]octan-1-yl)methyl)carbamoyl)(trans-cyclohexyl) 3-isopropoxy-azetidine-1-carboxylate] stands no more than 50 nM; under `COc1ccc(C23CCC(CN(c4cc(-c5cnn(C(C)C)c5)ccn4)C(=O)[C@H]4CC[C@H](OC(=O)N5CC(C(C)C)C5)CC4)(CC2)CC3)cc1C` [Compound 23.12, 4-((4-(1-Isopropyl-1H-pyrazol-4-yl)pyridin-2-yl)((4-(4-methoxy-3-methylphenyl)bicyclo[2.2.2]oc-tan-1-yl)methyl)carbamoyl)cyclo-hexyl trans-3-isopropyl-azetidine-1-carboxylate], no more than 50 nM.
Consider `COc1ccc(C23CCC(CN(c4cc(-n5cnc(C(C)C)c5)ccn4)C(=O)[C@H]4CC[C@H](OC(=O)N5CC(O)C5)CC4)(CC2)CC3)cc1C` [Compound 23.13, 4-((4-(4-Isopropyl-1H-imidazol-1-yl)pyridin-2-yl)((4-(4-methoxy-3-methylphenyl)bicyclo[2.2.2]octan-1-yl)methyl)carbamoyl)cyclohexyl trans-3-hydroxyazetidine-1-carboxylate], for which the EC50 is no more than 50 nM.
Next, `COc1ccc(C23CCC(CN(c4cc(-n5cc(C(C)C)cn5)ccn4)C(=O)[C@H]4CC[C@H](OC(=O)N5CC(O)C5)CC4)(CC2)CC3)cc1C` [Compound 23.14, 4-((4-(4-Isopropyl-1H-pyrazol-1-yl)pyridin-2-yl)((4-(4-meth-oxy-3-methylphenyl)bi-cyclo[2.2.2]octan-1-yl)meth-yl)carbamoyl)cyclohexyl trans-3-hydroxyazetidine-1-carboxylate]: no more than 50 nM; `COc1ccc(C23CCC(CN(c4cc(-n5ccc(C(C)C)n5)ccn4)C(=O)[C@H]4CC[C@H](OC(=O)N5CC(O)C5)CC4)(CC2)CC3)cc1C` [Compound 23.15, 4-((4-(3-Isopropyl-1H-pyrazol-1-yl)pyridin-2-yl)((4-(4-methoxy-3-methylphenyl)bicyclo[2.2.2]octan-1-yl)methyl)carbamoyl)cyclo-hexyl trans-3-hydroxyazetidine-1-carboxylate]: no more than 50 nM; `COc1ccc(C23CCC(CN(c4cc(-c5ccn(C(C)C)n5)ccn4)C(=O)[C@H]4CC[C@H](OC(=O)N5CC(O)C5)CC4)(CC2)CC3)cc1C` [Compound 23.16, 4-((4-(1-Isopropyl-1H-pyrazol-3-yl)pyridin-2-yl)((4-(4-methoxy-3-methylphenyl)bicyclo[2.2.2]octan-1-yl)methyl)carbamoyl)cyclo-hexyl trans-3-hydroxyazetidine-1-carboxylate]: no more than 50 nM.
Under `COc1ccc(C23CCC(CN(c4cc(C5CCN(C(C)C)CC5)ccn4)C(=O)[C@H]4CC[C@H](OC(=O)N5CC(O)C5)CC4)(CC2)CC3)cc1C` [Compound 23.17, 4-((4-(1-Isopropylpiperidin-4-yl)pyridin-2-yl)((4-(4-methoxy-3-methylphenyl)bicyclo[2.2.2]octan-1-yl)methyl)carbamoyl)cyclo-hexyl trans-3-hydroxyazetidine-1-carboxylate] stands 50 to 1000 nM; under `COc1ccc(C23CCC(CN(c4cc(C5CCN(C(C)C)C5)ccn4)C(=O)[C@H]4CC[C@H](OC(=O)N5CC(O)C5)CC4)(CC2)CC3)cc1C` (stereo partly drawn) [Compound 23.18, 4-((4-(1-(Isopropylpyrrrolidin-3-yl)pyridin-2-yl)((4-(4-methoxy-3-methylphenyl)bicyclo[2.2.2]octan-1-yl)methyl)carbamoyl)cyclo-hexyl trans-3-hydroxyazetidine-1-carboxylate], 50 to 1000 nM.

Values taken from patent US20220056019A1, “FARNESOID X RECEPTOR AGONISTS AND USES THEREOF” (Metacrine, Inc., priority 2018, published 2022).
